Measured values as given in ChEMBL document CHEMBL5537170, “Design, Synthesis, and Anti-Osteoporotic Characterization of Arginine N-Glycosylated Teriparatide Analogs via the Silver-catalyzed Solid-Phase Glycosylation Strategy” (J Med Chem, 2024).
*1 amine or outer side, *2 acyl side, *3 side chain or, on linkers, in order; H or OH if unused. Where a SMILES comes first, the peptide text is derived from it. [ ]: non-standard residue; d: D form. X1 = N=C(NCCC[C@H](N[*:1])C(=O)[*:2])N[C@@H]1O[C@H](CO)[C@@H](O)[C@H](O)[C@H]1O; X7 = N=C(NCCC[C@H](N[*:1])C(=O)[*:2])N[C@H]1O[C@H](CO)[C@@H](O)[C@H](O)[C@@H]1O; X5 = N=C(NCCC[C@H](N[*:1])C(=O)[*:2])N[C@@H]1OC[C@@H](O)[C@H](O)[C@H]1O

Experiment: Cytotoxicity against C57BL/6 mouse Pre-Osteoblast cells assessed as cell death upto 5 uM incubated for 4 days by CCK-8 assay
Type: toxicity, cell-based
Conditions: 96 h, time 4 day

| Compound | Activity |
| --- | --- |
| CC[C@H](C)[C@H](NC(=O)[C@H](CCC(=O)O)NC(=O)[C@H](CO)NC(=O)[C@@H](NC(=O)[C@H](CO)NC(C)=O)C(C)C)C(=O)N[C@@H](CCC(N)=O)C(=O)N[C@@H](CC(C)C)C(=O)N[C@@H](CCSC)C(=O)N[C@@H](Cc1cnc[nH]1)C(=O)N[C@@H](CC(N)=O)C(=O)N[C@@H](CC(C)C)C(=O)NCC(=O)N[C@@H](CCCCN)C(=O)N[C@@H](Cc1cnc[nH]1)C(=O)N[C@@H](CC(C)C)C(=O)N[C@@H](CC(N)=O)C(=O)N[C@@H](CO)C(=O)N[C@@H](CCSC)C(=O)N[C@@H](CCC(=O)O)C(=O)N[C@@H](CCCNC(=N)N[C@@H]1O[C@H](CO)[C@@H](O)[C@H](O)[C@H]1O)C(=O)N[C@H](C(=O)N[C@@H](CCC(=O)O)C(=O)N[C@@H](Cc1c[nH]c2ccccc12)C(=O)N[C@@H](CC(C)C)C(=O)N[C@@H](CCCNC(=N)N[C@@H]1O[C@H](CO)[C@@H](O)[C@H](O)[C@H]1O)C(=O)N[C@@H](CCCCN)C(=O)N[C@@H](CCCCN)C(=O)N[C@@H](CC(C)C)C(=O)N[C@@H](CCC(N)=O)C(=O)N[C@@H](CC(=O)O)C(=O)N[C@H](C(=O)N[C@@H](Cc1cnc[nH]1)C(=O)N[C@@H](CC(N)=O)C(=O)N[C@@H](Cc1ccccc1)C(N)=O)C(C)C)C(C)C (Ac-SVSEIQLMHNLGKHLNSME[X1]VEWL[X1]KKLQDVHNF-NH2) | Non-Toxic |
| CC[C@H](C)[C@H](NC(=O)[C@H](CCC(=O)O)NC(=O)[C@H](CO)NC(=O)[C@@H](NC(=O)[C@H](CO)NC(C)=O)C(C)C)C(=O)N[C@@H](CCC(N)=O)C(=O)N[C@@H](CC(C)C)C(=O)N[C@@H](CCSC)C(=O)N[C@@H](Cc1cnc[nH]1)C(=O)N[C@@H](CC(N)=O)C(=O)N[C@@H](CC(C)C)C(=O)NCC(=O)N[C@@H](CCCCN)C(=O)N[C@@H](Cc1cnc[nH]1)C(=O)N[C@@H](CC(C)C)C(=O)N[C@@H](CC(N)=O)C(=O)N[C@@H](CO)C(=O)N[C@@H](CCSC)C(=O)N[C@@H](CCC(=O)O)C(=O)N[C@@H](CCCNC(=N)N[C@H]1O[C@H](CO)[C@@H](O)[C@H](O)[C@@H]1O)C(=O)N[C@H](C(=O)N[C@@H](CCC(=O)O)C(=O)N[C@@H](Cc1c[nH]c2ccccc12)C(=O)N[C@@H](CC(C)C)C(=O)N[C@@H](CCCNC(=N)N[C@H]1O[C@H](CO)[C@@H](O)[C@H](O)[C@@H]1O)C(=O)N[C@@H](CCCCN)C(=O)N[C@@H](CCCCN)C(=O)N[C@@H](CC(C)C)C(=O)N[C@@H](CCC(N)=O)C(=O)N[C@@H](CC(=O)O)C(=O)N[C@H](C(=O)N[C@@H](Cc1cnc[nH]1)C(=O)N[C@@H](CC(N)=O)C(=O)N[C@@H](Cc1ccccc1)C(N)=O)C(C)C)C(C)C (Ac-SVSEIQLMHNLGKHLNSME[X7]VEWL[X7]KKLQDVHNF-NH2) | Non-Toxic |
| CC[C@H](C)[C@H](NC(=O)[C@H](CCC(=O)O)NC(=O)[C@H](CO)NC(=O)[C@@H](NC(=O)[C@H](CO)NC(C)=O)C(C)C)C(=O)N[C@@H](CCC(N)=O)C(=O)N[C@@H](CC(C)C)C(=O)N[C@@H](CCSC)C(=O)N[C@@H](Cc1cnc[nH]1)C(=O)N[C@@H](CC(N)=O)C(=O)N[C@@H](CC(C)C)C(=O)NCC(=O)N[C@@H](CCCCN)C(=O)N[C@@H](Cc1cnc[nH]1)C(=O)N[C@@H](CC(C)C)C(=O)N[C@@H](CC(N)=O)C(=O)N[C@@H](CO)C(=O)N[C@@H](CCSC)C(=O)N[C@@H](CCC(=O)O)C(=O)N[C@@H](CCCNC(=N)N[C@@H]1O[C@H](CO)[C@@H](O[C@@H]2O[C@H](CO)[C@H](O)[C@H](O)[C@H]2O)[C@H](O)[C@H]1O)C(=O)N[C@H](C(=O)N[C@@H](CCC(=O)O)C(=O)N[C@@H](Cc1c[nH]c2ccccc12)C(=O)N[C@@H](CC(C)C)C(=O)N[C@@H](CCCNC(=N)N)C(=O)N[C@@H](CCCCN)C(=O)N[C@@H](CCCCN)C(=O)N[C@@H](CC(C)C)C(=O)N[C@@H](CCC(N)=O)C(=O)N[C@@H](CC(=O)O)C(=O)N[C@H](C(=O)N[C@@H](Cc1cnc[nH]1)C(=O)N[C@@H](CC(N)=O)C(=O)N[C@@H](Cc1ccccc1)C(N)=O)C(C)C)C(C)C | Non-Toxic |
| CC[C@H](C)[C@H](NC(=O)[C@H](CCC(=O)O)NC(=O)[C@H](CO)NC(=O)[C@@H](NC(=O)[C@H](CO)NC(C)=O)C(C)C)C(=O)N[C@@H](CCC(N)=O)C(=O)N[C@@H](CC(C)C)C(=O)N[C@@H](CCSC)C(=O)N[C@@H](Cc1cnc[nH]1)C(=O)N[C@@H](CC(N)=O)C(=O)N[C@@H](CC(C)C)C(=O)NCC(=O)N[C@@H](CCCCN)C(=O)N[C@@H](Cc1cnc[nH]1)C(=O)N[C@@H](CC(C)C)C(=O)N[C@@H](CC(N)=O)C(=O)N[C@@H](CO)C(=O)N[C@@H](CCSC)C(=O)N[C@@H](CCC(=O)O)C(=O)N[C@@H](CCCNC(=N)N[C@@H]1OC[C@@H](O)[C@H](O)[C@H]1O)C(=O)N[C@H](C(=O)N[C@@H](CCC(=O)O)C(=O)N[C@@H](Cc1c[nH]c2ccccc12)C(=O)N[C@@H](CC(C)C)C(=O)N[C@@H](CCCNC(=N)N[C@@H]1OC[C@@H](O)[C@H](O)[C@H]1O)C(=O)N[C@@H](CCCCN)C(=O)N[C@@H](CCCCN)C(=O)N[C@@H](CC(C)C)C(=O)N[C@@H](CCC(N)=O)C(=O)N[C@@H](CC(=O)O)C(=O)N[C@H](C(=O)N[C@@H](Cc1cnc[nH]1)C(=O)N[C@@H](CC(N)=O)C(=O)N[C@@H](Cc1ccccc1)C(N)=O)C(C)C)C(C)C (Ac-SVSEIQLMHNLGKHLNSME[X5]VEWL[X5]KKLQDVHNF-NH2) | Non-Toxic |
| CC[C@H](C)[C@H](NC(=O)[C@H](CCC(=O)O)NC(=O)[C@H](CO)NC(=O)[C@@H](NC(=O)[C@H](CO)NC(C)=O)C(C)C)C(=O)N[C@@H](CCC(N)=O)C(=O)N[C@@H](CC(C)C)C(=O)N[C@@H](CCSC)C(=O)N[C@@H](Cc1cnc[nH]1)C(=O)N[C@@H](CC(N)=O)C(=O)N[C@@H](CC(C)C)C(=O)NCC(=O)N[C@@H](CCCCN)C(=O)N[C@@H](Cc1cnc[nH]1)C(=O)N[C@@H](CC(C)C)C(=O)N[C@@H](CC(N)=O)C(=O)N[C@@H](CO)C(=O)N[C@@H](CCSC)C(=O)N[C@@H](CCC(=O)O)C(=O)N[C@@H](CCCNC(=N)N[C@@H]1O[C@H](CO)[C@@H](O)[C@H]1O)C(=O)N[C@H](C(=O)N[C@@H](CCC(=O)O)C(=O)N[C@@H](Cc1c[nH]c2ccccc12)C(=O)N[C@@H](CC(C)C)C(=O)N[C@@H](CCCNC(=N)N[C@@H]1O[C@H](CO)[C@@H](O)[C@H]1O)C(=O)N[C@@H](CCCCN)C(=O)N[C@@H](CCCCN)C(=O)N[C@@H](CC(C)C)C(=O)N[C@@H](CCC(N)=O)C(=O)N[C@@H](CC(=O)O)C(=O)N[C@H](C(=O)N[C@@H](Cc1cnc[nH]1)C(=O)N[C@@H](CC(N)=O)C(=O)N[C@@H](Cc1ccccc1)C(N)=O)C(C)C)C(C)C | Non-Toxic |
